Measurements: patent US20220306659A1, “COMPOUND INHIBITING AND INDUCING DEGRADATION OF EGFR AND ALK” (BEIJING TIDE PHARMACEUTICAL CO., LTD., priority 2019, published 2022)

Legend:
[1] = target: Ba/F3(EGFR^L858R/T790M/C797S) cells (Homo sapiens, UniProt P00533, T790M/C797S/L858R, cells depend on it); experiment: Assay of activity on Ba/F3 cells (CTG, 72 h); assay type: cell-based; conditions: read-out: IC50 (nM) Ba/F3 (EGFR^L858R/T790M/C797S)
Method in brief: (§1)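 Ba/F3 cells dependent on each EGFR triple mutant were exposed to 3-fold compound dilutions for 72 h at 37° C, 5% CO2, with CellTiter-Glo luminescence as the read-out.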

[2] = target: EGFR^L858R/T790M/C797S (Homo sapiens, UniProt P00533, C797S/L858R/T790M); experiment: EGFR inhibitory activity assay (TK-substrate-biotin/ATP, 665/615 ratio); assay type: biochemical; conditions: kinase inhibition
Experimental: EGFR Inhibitory Activity Assay
(1) A compound stock solution was prepared and diluted 3× to obtain a compound dilution; 10 nL of the compound dilution was transferred to a 384-well plate (784075, Greiner) by Echo 550;
(2) The plate was sealed, and centrifuged at 1,000 g for 1 min;
(4) 5 μl of the 2×EGFR protein working solution was added to the 384-well plate from step (2), centrifuged at 1,000 g for 30 s, and allowed to stand at room temperature (mixed thoroughly) for 10 min;
(6) 5 µL of the TK-substrate-biotin and ATP (the mixture prepared in step (5)) was added to the 384-well plate from step (4) to initiate the reaction;
(7) The mixture was centrifuged at 1,000 g for 30 s; the plate was sealed, and allowed to stand (and reacted) at room temperature for 40 min;
(8) 4×Sa-XL 665 and TK-antibody-Cryptate were prepared with detection buffer;
(9) 5 µL of the Sa-XL 665 and 5 µL of the TK-antibody-Cryptate were added successively to the 384-well plate from step (7);
(10) The mixture was centrifuged at 1,000 g for 30 s, and allowed to stand (reacted) at room temperature for 1 h;
(11) The fluorescence values were read at 615 nm and 665 nm by enzyme labeling instrument (PerkinElmer, 74785).
The ratio (665/615) of each well was calculated.
(§2) Formula of inhibition rate (%): […]
Ratiocmpd: Ratio (665/615) value of assay compound.
Ratiopositive: Average ratio (665/615) value of positive control.
Ratiovehicle: Average ratio (665/615) value of negative control.
(§3) The nonlinear regression curve (dose response-variable slope) between the value of inhibition rate (%) and the logarithm of compound concentration was fitted with graphpad prism 8.0, the effect dose curve of compound was drawn, and the IC50 value was calculated.

[3] = target: ALK^G1202R (Homo sapiens, UniProt Q9UM73, G1202R); experiment: Assay of activity on ALK kinase; assay type: biochemical; conditions: kinase inhibition
Sequence of ALK^G1202R (Q9UM73 19-1620 G1202R): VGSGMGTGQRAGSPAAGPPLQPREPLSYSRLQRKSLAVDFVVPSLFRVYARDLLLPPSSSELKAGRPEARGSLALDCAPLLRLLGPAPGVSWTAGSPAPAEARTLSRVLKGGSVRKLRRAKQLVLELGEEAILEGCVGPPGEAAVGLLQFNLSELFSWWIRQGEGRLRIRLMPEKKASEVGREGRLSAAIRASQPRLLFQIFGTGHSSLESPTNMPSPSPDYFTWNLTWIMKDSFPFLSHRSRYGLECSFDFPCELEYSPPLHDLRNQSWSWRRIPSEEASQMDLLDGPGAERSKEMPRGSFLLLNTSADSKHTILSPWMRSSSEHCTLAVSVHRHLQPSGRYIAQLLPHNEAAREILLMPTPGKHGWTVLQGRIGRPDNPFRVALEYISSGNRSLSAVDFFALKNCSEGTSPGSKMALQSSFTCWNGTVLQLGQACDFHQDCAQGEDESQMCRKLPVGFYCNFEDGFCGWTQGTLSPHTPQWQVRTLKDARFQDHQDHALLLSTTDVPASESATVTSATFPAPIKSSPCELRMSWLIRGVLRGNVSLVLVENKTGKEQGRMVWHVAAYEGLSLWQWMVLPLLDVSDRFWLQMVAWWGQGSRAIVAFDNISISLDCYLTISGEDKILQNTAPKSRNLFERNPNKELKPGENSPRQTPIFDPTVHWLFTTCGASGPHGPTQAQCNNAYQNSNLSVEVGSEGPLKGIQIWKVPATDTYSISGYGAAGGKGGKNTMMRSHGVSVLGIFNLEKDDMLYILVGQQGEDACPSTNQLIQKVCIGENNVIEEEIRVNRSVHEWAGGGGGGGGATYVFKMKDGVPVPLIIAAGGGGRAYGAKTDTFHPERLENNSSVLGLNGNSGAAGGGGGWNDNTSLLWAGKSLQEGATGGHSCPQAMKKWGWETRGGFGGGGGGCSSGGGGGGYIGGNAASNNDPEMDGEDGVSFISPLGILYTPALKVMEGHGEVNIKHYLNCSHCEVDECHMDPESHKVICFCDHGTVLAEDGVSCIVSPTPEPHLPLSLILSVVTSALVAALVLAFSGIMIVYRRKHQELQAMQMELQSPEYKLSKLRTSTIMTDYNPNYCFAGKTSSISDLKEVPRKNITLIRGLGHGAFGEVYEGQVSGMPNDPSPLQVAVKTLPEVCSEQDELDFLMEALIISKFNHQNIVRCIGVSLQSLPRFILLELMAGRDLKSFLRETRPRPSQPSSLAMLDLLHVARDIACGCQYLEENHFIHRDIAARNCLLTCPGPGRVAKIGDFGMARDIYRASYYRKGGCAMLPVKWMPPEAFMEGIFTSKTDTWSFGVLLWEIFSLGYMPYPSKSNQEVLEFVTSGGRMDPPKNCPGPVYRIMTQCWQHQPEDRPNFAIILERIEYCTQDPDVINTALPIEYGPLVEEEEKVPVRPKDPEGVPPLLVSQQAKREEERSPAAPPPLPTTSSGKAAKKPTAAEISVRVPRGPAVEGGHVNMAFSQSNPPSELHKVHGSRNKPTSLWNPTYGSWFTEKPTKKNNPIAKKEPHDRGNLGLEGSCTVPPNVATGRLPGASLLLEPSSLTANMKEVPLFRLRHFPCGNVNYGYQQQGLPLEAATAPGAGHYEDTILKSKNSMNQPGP
Experimental: (§4) Assay of activity on ALK kinase
(§5) (1) A compound stock solution was prepared;
(§6) (2) The compound stock solution was diluted 3× to obtain a compound dilution;
(§7) (5) 5 μl of the 2× kinase working solution was added to the reaction plate, centrifuged at 1,000 rpm for 1 min, and incubated at 25° C. for 15 min;
(§8) (7) 5 μl of the TK-substrate-biotin and ATP (the mixture prepared in step (6)) was added to initiate the reaction;
(§9) (8) The mixture was centrifuged at 1,000 g for 30 s; the plate was sealed, and incubated at 25° C. for 60 min;
(§10) (11) The mixture was centrifuged at 1,000 g for 1 min, and incubated at 25° C. for 60 min;
as §2, §3
(§11) Y=Bottom+(Top−Bottom)/(1+10^((LogIC50−X)*Hill Slope))
(§12) X-axis: logarithm of compound concentration; Y axis: inhibition rate ([…])

[4] = target: ALK (Homo sapiens, UniProt Q9UM73); experiment: Assay of activity on ALK kinase; assay type: biochemical; conditions: kinase inhibition
Sequence of ALK (Q9UM73 19-1620): as the sequence (Q9UM73 19-1620 G1202R) above, with R1184G counted along it
Experimental: as §4, §5, §6, §7, §8, §9, §10, §2, §3, §11, §12

[5] = target: Ba/F3(EGFR^Del19/T790M/C797S) cells (Homo sapiens, UniProt P00533, DEL746-750/T790M/C797S, cells depend on it); experiment: Assay of activity on Ba/F3 cells (CTG, 72 h); assay type: cell-based; conditions: read-out: IC50 (nM) Ba/F3 (EGFR^Del19/T790M/C797S)
Sequence of Ba/F3(EGFR^Del19/T790M/C797S) cells (P00533 with tags, fused parts or gaps DEL746-750/T790M/C797S): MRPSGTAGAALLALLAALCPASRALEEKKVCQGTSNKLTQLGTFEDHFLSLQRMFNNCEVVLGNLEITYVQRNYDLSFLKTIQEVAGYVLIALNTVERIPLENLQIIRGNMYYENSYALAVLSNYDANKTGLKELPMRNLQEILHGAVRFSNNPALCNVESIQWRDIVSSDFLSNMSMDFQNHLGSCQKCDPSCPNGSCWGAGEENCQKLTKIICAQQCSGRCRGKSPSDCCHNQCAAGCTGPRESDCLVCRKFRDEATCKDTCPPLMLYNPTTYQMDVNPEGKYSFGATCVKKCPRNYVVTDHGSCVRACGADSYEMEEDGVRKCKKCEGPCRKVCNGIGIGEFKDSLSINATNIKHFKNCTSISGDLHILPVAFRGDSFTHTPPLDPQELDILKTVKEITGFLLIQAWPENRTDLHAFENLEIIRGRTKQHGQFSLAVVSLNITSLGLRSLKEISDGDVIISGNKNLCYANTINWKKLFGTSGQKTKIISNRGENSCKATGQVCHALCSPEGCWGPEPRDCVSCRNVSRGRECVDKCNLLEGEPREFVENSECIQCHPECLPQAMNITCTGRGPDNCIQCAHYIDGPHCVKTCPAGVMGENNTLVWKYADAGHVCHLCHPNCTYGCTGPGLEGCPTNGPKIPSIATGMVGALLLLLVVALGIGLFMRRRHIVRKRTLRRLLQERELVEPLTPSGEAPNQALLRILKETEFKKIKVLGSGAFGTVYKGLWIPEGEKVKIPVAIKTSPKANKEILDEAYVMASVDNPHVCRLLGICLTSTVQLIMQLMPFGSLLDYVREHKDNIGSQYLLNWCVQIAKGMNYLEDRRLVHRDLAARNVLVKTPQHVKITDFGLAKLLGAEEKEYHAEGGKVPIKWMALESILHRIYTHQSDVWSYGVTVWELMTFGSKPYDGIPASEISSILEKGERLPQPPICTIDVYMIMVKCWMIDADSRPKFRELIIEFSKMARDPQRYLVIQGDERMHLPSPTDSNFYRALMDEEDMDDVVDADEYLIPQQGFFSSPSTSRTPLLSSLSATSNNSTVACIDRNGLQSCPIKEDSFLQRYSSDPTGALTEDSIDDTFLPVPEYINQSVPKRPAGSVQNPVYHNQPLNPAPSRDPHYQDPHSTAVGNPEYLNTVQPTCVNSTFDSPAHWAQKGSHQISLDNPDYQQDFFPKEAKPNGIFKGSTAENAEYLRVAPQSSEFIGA
Method in brief: as §1

[6] = target: T1, Ba/F3(EML4-ALK) cells (Homo sapiens, UniProt Q9UM73); experiment: Assay of activity on Ba/F3(EML4-ALK) cells (CTG, 72 h); assay type: cell-based; conditions: read-out: IC50 (nM) Ba/F3(EML4-ALK)
T1 construct: fused on or other part: Q9HC35 (Echinoderm microtubule-associated protein-like 4)
Experimental: Assay of activity on Ba/F3(EML4-ALK) cells
(1) Ba/F3(EML4-ALK) cells were cultured according to the requirements of ATCC, incubated in an incubator at 37° C. and 5% CO2, and analyzed by index; cells with viability of >90% can be used in the assay, and cells were seeded in a 384-well plate (PerkinElmer, 6007680) with 700 cells/well, 30 μl/well.
(2) A compound stock solution was prepared, and diluted 3× to obtain a compound dilution; 30 nL of the serial dilution was added to a 384-well plate (784075, Greiner) by Echo 550, and cells were incubated in an incubator at 37° C. and 5% CO2 for 72 h.
(3) 30 μL of CTG was added to each well, and the 384-well plate was shaken on a Plate shaker (QILINBEIER, QB-9002); the 384-well plate was incubated in the dark at 37° C. and 5% CO2 for 30 min, and the chemiluminescence value was read by Envision (PerkinElmer, EnVision 2104).
The percent inhibition rate (% inhibition) was calculated by the formula below
LUMcmpd: Luminescence value of assay compound.
LUMpositive: Average LUM value of positive drug at a concentration of 10 μM.
LUM^vehicle: Average LUM value of negative control group without drug treatment.
as §3
Y=Bottom+(Top−Bottom)/(1+10^((LogIC50−X)*HillSlope))
X-axis: logarithm of compound concentration; Y axis: inhibition rate (% inhibition).

Sequence of Ba/F3(EGFR^L858R/T790M/C797S) cells (P00533 whole entry T790M/C797S/L858R): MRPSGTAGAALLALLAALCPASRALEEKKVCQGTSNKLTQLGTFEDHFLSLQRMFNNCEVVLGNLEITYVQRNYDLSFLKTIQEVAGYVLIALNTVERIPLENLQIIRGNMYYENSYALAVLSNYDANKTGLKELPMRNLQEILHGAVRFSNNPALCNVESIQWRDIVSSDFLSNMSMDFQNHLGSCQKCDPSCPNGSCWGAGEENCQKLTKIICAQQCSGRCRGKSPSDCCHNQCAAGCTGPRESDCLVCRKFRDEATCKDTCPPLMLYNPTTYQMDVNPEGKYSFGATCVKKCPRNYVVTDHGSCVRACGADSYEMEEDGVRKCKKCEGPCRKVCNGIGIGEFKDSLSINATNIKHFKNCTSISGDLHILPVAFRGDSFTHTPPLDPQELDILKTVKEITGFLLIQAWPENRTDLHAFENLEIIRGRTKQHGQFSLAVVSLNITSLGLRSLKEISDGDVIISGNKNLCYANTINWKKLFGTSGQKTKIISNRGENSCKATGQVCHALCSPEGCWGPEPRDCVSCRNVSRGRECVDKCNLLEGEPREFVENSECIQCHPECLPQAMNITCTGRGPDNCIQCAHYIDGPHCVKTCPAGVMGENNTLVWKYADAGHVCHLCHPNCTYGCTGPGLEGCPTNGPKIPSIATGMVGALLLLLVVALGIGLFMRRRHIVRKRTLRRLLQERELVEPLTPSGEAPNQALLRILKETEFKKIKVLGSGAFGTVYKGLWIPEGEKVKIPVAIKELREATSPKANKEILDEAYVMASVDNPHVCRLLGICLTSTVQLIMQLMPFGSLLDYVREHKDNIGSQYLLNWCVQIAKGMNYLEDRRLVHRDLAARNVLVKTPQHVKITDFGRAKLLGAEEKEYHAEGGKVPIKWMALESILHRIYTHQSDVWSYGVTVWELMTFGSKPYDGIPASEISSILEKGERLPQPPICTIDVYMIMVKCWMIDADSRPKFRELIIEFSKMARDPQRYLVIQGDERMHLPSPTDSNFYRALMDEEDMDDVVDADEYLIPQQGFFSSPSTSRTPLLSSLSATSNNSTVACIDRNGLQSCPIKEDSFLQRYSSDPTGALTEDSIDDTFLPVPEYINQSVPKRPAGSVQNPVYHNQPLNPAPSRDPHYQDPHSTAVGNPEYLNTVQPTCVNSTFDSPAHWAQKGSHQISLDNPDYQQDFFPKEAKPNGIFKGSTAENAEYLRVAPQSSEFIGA

Row | Structure (SMILES) | GI50 [1] [nM] | IC50 [2] [nM] | IC50 [3] [nM] | IC50 [4] [nM] | GI50 [5] [nM] | GI50 [6] [nM]
1 | COc1cc(N2CCC(N3CCN(CCOCC#Cc4ccc5c(c4)CN(C4CCC(=O)NC4=O)C5=O)CC3)CC2)ccc1Nc1ncc(Cl)c(Nc2ccccc2P(C)(C)=O)n1 (stereo not drawn) [Compound C193, 3-(5-(3-(2-(4-(1-(4-((5-chloro-4-((2-(dimethylphosphoryl)phenyl)amino)pyrimidin-2-yl)amino)-3-methoxyphenyl)piperidin-4-yl)piperazin-1-yl)ethoxy)prop-1-yn-1-yl)-1-oxoisoindolin-2-yl)piperidine-2,6-dione] |  |  | 201 to 300 | 1 to 100 | 1 to 100 | 1 to 100
2 | COc1cc(N2CCC(N3CCN(CCCCCCC#Cc4ccc5c(c4)CN(C4CCC(=O)NC4=O)C5=O)CC3)CC2)ccc1Nc1ncc(Cl)c(Nc2ccccc2P(C)(C)=O)n1 (stereo not drawn) [Compound C194, 3-(5-(8-(4-(1-(4-((5-chloro-4-((2-(dimethylphosphoryl)phenyl)amino)pyrimidin-2-yl)amino)-3-methoxyphenyl)piperidin-4-yl)piperazin-1-yl)oct-1-yn-1-yl)-1-oxoisoindolin-2-yl)piperidine-2,6-dione] |  |  | > 300 | 1 to 100 | 1 to 100 | 1 to 100

Next, values leading:

Row | GI50 [1] [nM] | IC50 [2] [nM] | IC50 [3] [nM] | IC50 [4] [nM] | GI50 [5] [nM] | GI50 [6] [nM] | Structure (SMILES)
3 | > 300 | 1 to 100 | 201 to 300 | 1 to 100 |  |  | COc1cc(N2CCC(N3CCN(CC4(COc5cccc6c5C(=O)N(C5CCC(=O)NC5=O)C6=O)CC4)CC3)CC2)ccc1Nc1ncc(Cl)c(Nc2ccccc2P(C)(C)=O)n1 (stereo not drawn) [Compound C106, 4-((1-((4-(1-(4-((5-chloro-4-((2-(dimethylphosphoryl)phenyl)amino)pyrimidin-2-yl)amino)-3-methoxyphenyl)piperidin-4-yl)piperazin-1-yl)methyl)cyclopropyl)methoxy)-2-(2,6-dioxopiperidin-3-yl)isoindoline-1,3-dione]
4 | 101 to 200 | 1 to 100 | 101 to 200 | 1 to 100 |  |  | COc1cc(N2CCC(N3CCN(CC(=O)OCC4(COc5cccc6c5C(=O)N(C5CCC(=O)NC5=O)C6=O)CC4)CC3)CC2)ccc1Nc1ncc(Cl)c(Nc2ccccc2P(C)(C)=O)n1 (stereo not drawn) [Compound C107, 2-(4-(1-(4-((5-chloro-4-((2-(dimethylphosphoryl)phenyl)amino)pyrimidin-2-yl)amino)-3-methoxyphenyl)piperidin-4-yl)piperazin-1-yl)acetate (1-(((2-(2,6-dioxopiperidin-3-yl)-1,3-dioxoisoindolin-4-yl)oxy)methyl)cyclopropyl)methyl ester]
5 | > 300 | 1 to 100 | 1 to 100 | 1 to 100 |  |  | COc1cc(N2CCC(N3CCN(CC(=O)N4CCC[C@H]4COc4cccc5c4C(=O)N(C4CCC(=O)NC4=O)C5=O)CC3)CC2)ccc1Nc1ncc(Cl)c(Nc2ccccc2P(C)(C)=O)n1 (stereo partly drawn) [Compound C109, 4-(((S)-1-(2-(4-(1-(4-((5-chloro-4-((2-(dimethylphosphoryl)phenyl)amino)pyrimidin-2-yl)amino)-3-methoxyphenyl)piperidin-4-yl)piperazin-1-yl)acetyl)pyrrolidin-2-yl)methoxy)-2-(2,6-dioxopiperidin-3-yl)isoindoline-1,3-dione]
6 |  |  | 201 to 300 | 1 to 100 | 1 to 100 | 1 to 100 | COc1cc(N2CCC(N3CCN(CCCCCC#Cc4ccc5c(c4)CN(C4CCC(=O)NC4=O)C5=O)CC3)CC2)ccc1Nc1ncc(Cl)c(Nc2ccccc2P(C)(C)=O)n1 (stereo not drawn) [Compound C190, 3-(5-(7-(4-(1-(4-((5-chloro-4-((2-(dimethylphosphoryl)phenyl)amino)pyrimidin-2-yl)amino)-3-methoxyphenyl)piperidin-4-yl)piperazin-1-yl)hept-1-yn-1-yl)-1-oxoisoindolin-2-yl)piperidine-2,6-dione]
